# Like-named read-outs stand apart in the source and are kept apart here.
# Experiments:
# CDK9 = test system: CDK9; design: method as in S-inhibitor catalog; conditions: vendor brief description; ref S-inhibitor catalog; cited from earlier work
# Cdc7 = test system: Cdc7; design: method as in S-inhibitor catalog; conditions: vendor brief description; ref S-inhibitor catalog; cited from earlier work
# [1] = test system: Toxoplasma gondii RH-2F tachyzoites; test: microbe, parasite or virus in culture; conditions: 72 h
# GSK-3ɑ = conditions: read-out: IC50, GSK-3ɑ; vendor brief description; ref S-inhibitor catalog; cited from earlier work
# GSK-3β = conditions: read-out: IC50, GSK-3β; vendor brief description; ref S-inhibitor catalog; cited from earlier work
# mTOR = test system: mTOR; design: method as in S-inhibitor catalog; conditions: vendor brief description; ref S-inhibitor catalog; cited from earlier work
# PI3Kα = test system: PI3Kα; design: method as in S-inhibitor catalog; conditions: vendor brief description; ref S-inhibitor catalog; cited from earlier work
# PI3Kβ = test system: PI3Kβ; design: method as in S-inhibitor catalog; conditions: vendor brief description; ref S-inhibitor catalog; cited from earlier work
# in vitro = conditions: human, Host viability (%) mean
# IGF-1R = test system: IGF-1R; design: method as in S-inhibitor catalog; conditions: vendor brief description; ref S-inhibitor catalog; cited from earlier work
# ALK = conditions: read-out: IC50, ALK; vendor brief description; ref S-inhibitor catalog; cited from earlier work
# [2] = test system: Toxoplasma gondii RH-2F tachyzoites; conditions: preliminary screen of compound library; mean
# Mps1 = test system: Mps1; design: method as in S-inhibitor catalog; conditions: vendor brief description; ref S-inhibitor catalog; cited from earlier work
# wild-type CRAF = test system: wild-type CRAF; design: method as in S-inhibitor catalog; conditions: vendor brief description; ref S-inhibitor catalog; cited from earlier work
# BRAFV600E = test system: BRAFV600E; design: method as in S-inhibitor catalog; conditions: vendor brief description; ref S-inhibitor catalog; cited from earlier work
# MDMX = test system: MDMX; design: method as in S-inhibitor catalog; conditions: vendor brief description; ref S-inhibitor catalog; read-out: IC50, MDMX suppression; cited from earlier work
# γ-secretase [3] = target: γ-secretase; design: method as in S-inhibitor catalog; conditions: vendor brief description; ref S-inhibitor catalog; read-out: IC50, membrane-based γ-secretase; cited from earlier work
# γ-secretase [4] = target: γ-secretase; design: method as in S-inhibitor catalog; conditions: vendor brief description; ref S-inhibitor catalog; read-out: IC50, cell-based γ-secretase; cited from earlier work
# cancer cell lines = test system: cancer cell lines; design: method as in S-inhibitor catalog; conditions: vendor brief description; ref S-inhibitor catalog; cited from earlier work
# [5] = test system: Akt phosphorylation on T308; design: method as in S-inhibitor catalog; conditions: vendor brief description; ref S-inhibitor catalog; cited from earlier work
# [6] = test system: Akt phosphorylation on S473; design: method as in S-inhibitor catalog; conditions: vendor brief description; ref S-inhibitor catalog; cited from earlier work
# JAK2 = test system: JAK2; design: method as in S-inhibitor catalog; conditions: vendor brief description; ref S-inhibitor catalog; cited from earlier work
# Flt3 = test system: Flt3; design: method as in S-inhibitor catalog; conditions: vendor brief description; ref S-inhibitor catalog; cited from earlier work
# Ret = test system: Ret; design: method as in S-inhibitor catalog; conditions: vendor brief description; ref S-inhibitor catalog; cited from earlier work
# p38α = conditions: read-out: IC50, p38α; vendor brief description; ref S-inhibitor catalog; cited from earlier work
# Chk1 = test system: Chk1; design: method as in S-inhibitor catalog; conditions: vendor brief description; ref S-inhibitor catalog; cited from earlier work
# [7] = target: TGF-β receptor type II (TβRII); design: method as in S-inhibitor catalog; conditions: vendor brief description; ref S-inhibitor catalog; cited from earlier work
# [8] = read-out: Parasite inhibition (%) mean
# [9] = read-out: Parasite inhibition (%) mean, preliminary screen of compound library, mean
molecule,measurement,setting,value
O=C1NCCc2[nH]c(-c3ccncc3)cc21 [PHA-767491],IC50,CDK9,[…]
same,inhibition of growth at 5 µM,[1]; [8],2.1%
Nc1nc(NCCNc2ncc(-n3ccnc3)c(-c3ccc(Cl)cc3Cl)n2)ccc1[N+](=O)[O-] [CHIR-98014],IC50,GSK-3ɑ,0.65 nM
same,IC50,GSK-3β,0.58 nM
same,inhibition of growth at 5 µM,[1]; [8],52.4%
CCn1nnc2c(N3CCOCC3)nc(-c3ccc(NC(=O)Nc4ccc(C(=O)N5CCN(C)CC5)cc4)cc3)nc21 [PKI-402],IC50,mTOR,3 nM
same,IC50,PI3Kα,2 nM
same,inhibition of growth at 5 µM,[1]; [9],36.9%
CNC(=O)c1c(F)cccc1Nc1nc(Nc2cc3c(cc2OC)CCN3C(=O)CN(C)C)nc2[nH]ccc12 [GSK1838705A],viability at 72 h,in vitro,72.8%
same,IC50,IGF-1R,2 nM
same,IC50,ALK,0.5 nM
same,inhibition of growth at 5 µM,[1]; [9],70.9%
AZ 3146,Parasite inhibition (%) mean,[2],3.4%
same,IC50,Mps1,~35 nM
Cc1ccc(NC(=O)c2cccc(C(C)(C)C#N)c2)cc1Nc1ccc2ncn(C)c(=O)c2c1 [AZ628],IC50,wild-type CRAF,29 nM
same,IC50,BRAFV600E,34 nM
same,inhibition of growth at 5 µM,[1]; [9],0.6%
CN1CCN(c2ccc([N+](=O)[O-])c3no[n+]([O-])c23)CC1 [NSC-207895 (XI-006)],IC50,MDMX,2500 nM
same,inhibition of growth at 5 µM,[1]; [9],0.2%
C[C@H](NC(=O)[C@@H](O)c1cc(F)cc(F)c1)C(=O)N[C@@H]1C(=O)N(C)c2ccccc2-c2ccccc21 [LY411575],IC50,γ-secretase [3],0.078 nM
same,IC50,γ-secretase [4],0.082 nM
same,inhibition of growth at 5 µM,[1]; [9],0.9%
O=C(Cc1ccc(-c2ccc(OCCN3CCOCC3)cc2)cn1)NCc1ccccc1 [KX2-391],GI50,cancer cell lines,9 to 60 nM
same,inhibition of growth at 5 µM,[1]; [9],7.6%
COc1ccc(-c2cc3c(C)nc(N)nc3n([C@H]3CC[C@H](OCCO)CC3)c2=O)cn1 [PF-04691502],IC50,[5],7.5 nM
same,IC50,[6],3.8 nM
same,inhibition of growth at 5 µM,[1]; [9],11.5%
Cc1cnc(Nc2ccc(N3CCN(C)CC3)cc2)nc1Nc1cccc(S(=O)(=O)NC(C)(C)C)c1 [TG101209],IC50,JAK2,6 nM
same,IC50,Flt3,25 nM
same,IC50,Ret,17 nM
same,inhibition of growth at 5 µM,[1]; [9],-21.3%
CNC(=O)c1ccc(C)c(-n2c(C)cc(OCc3ccc(F)cc3F)c(Br)c2=O)c1 [PH-797804],IC50,p38α,26 nM
same,inhibition of growth at 5 µM,[1]; [9],1.5%
O=c1[nH]c2ccc(Cl)cc2c(N[C@@H]2CN3CCC2CC3)c1-c1nc2ccccc2[nH]1 [CHIR-124],IC50,Chk1,0.3 nM
same,inhibition of growth at 5 µM,[1]; [9],0%
c1ccc(-c2nn3c(c2-c2ccnc4cc(OCCN5CCOCC5)ccc24)CCC3)nc1 [LY2109761],Ki,[7],300 nM
same,inhibition of growth at 5 µM,[1]; [8],46.7%

# From article PMC7216583 (Parasites & Vectors, 2020)
